According to publication PMC10860121 (ACS infectious diseases, 2023):
Read-outs that look alike come from different tables or passages of the source.

Tests used:
[1] = In vitro intrinsic clearance in human liver microsomes; type: in vitro ADME; conditions: for microsomal CLint: human, liver microsomes, h CLint
[2] = In vitro intrinsic clearance in mouse liver microsomes; type: in vitro ADME
[3] = Stability in 0.1 M PBS pH 7.4; type: physicochemical; conditions: 7 h incubation period
[4] = system: Chloroquine-sensitive NF54 P. falciparum isolate; test: In vitro antiplasmodial activity, NF54; type: cell-based, Plasmodium falciparum; conditions: for IC50: Plasmodium falciparum
Chromatographic LogD7.4 = type: physicochemical; conditions: gradient HPLC, Phenomenex Synergi Hydro-RP column, pH 7.4
[5] = Stability in P. falciparum activity test medium; type: physicochemical; conditions: for half-life at 1 μM: P. falciparum in vitro activity test medium
P. falciparum K1 = test: In vitro antiplasmodial activity, K1, 72 h [3H]hypoxanthine incorporation; type: cell-based; conditions: Plasmodium falciparum, K1, read-out: P. falciparum IC50 K1
P. falciparum 7G8 = test: In vitro antiplasmodial activity, 7G8, 72 h [3H]hypoxanthine incorporation; type: cell-based; conditions: Plasmodium falciparum, 7G8, read-out: P. falciparum IC50 7G8
P. falciparum Dd2 = test: In vitro antiplasmodial activity, Dd2, 72 h [3H]hypoxanthine incorporation; type: cell-based; conditions: Plasmodium falciparum, DD2, read-out: P. falciparum IC50 Dd2
P. falciparum RF12 = test: In vitro antiplasmodial activity, RF12, 72 h [3H]hypoxanthine incorporation; type: cell-based; conditions: Plasmodium falciparum, read-out: P. falciparum IC50 RF12
P. falciparum TM90C2B = type: cell-based; conditions: Plasmodium falciparum, read-out: P. falciparum IC50 TM90C2B
[6] = In vivo pharmacokinetics in mice; design: species or system male Swiss outbred mice
[7] = system: GFP MRA-865 strain of Plasmodium berghei; test: In vivo antimalarial activity in P. berghei-infected mice; conditions: female NMRI mice, four 50 mg/kg daily oral doses; untreated control 52.3 ± 2.6%
[8] = NF54, read-out: P. falciparum IC50, NF54, mean from n ≥ 2

Structure (SMILES)	microsomal CLint [1] [µL/min/mg]	microsomal CLint [2] [µL/min/mg]	loss in 0.1 M PBS pH 7.4 [3] [%]	IC50 [4, 8] [nM]	chromatographic logD (Chromatographic LogD7.4)	IC50 (P. falciparum K1) [nM]	IC50 (P. falciparum 7G8) [nM]	IC50 (P. falciparum Dd2) [nM]	IC50 (P. falciparum RF12) [nM]	IC50 (P. falciparum TM90C2B) [nM]	half-life at 1 μM [5] [h]	other results
O=C1Nc2ccccc2C(=O)CCc2ccccc21 [Compound 2, 11,12-dihydro-5H-dibenzo[b,g]azonine-6,13-dione]	20 to 40	39	< 5	190	1.9	–	–	–	–	–	–	h CLint [1]: 20 μL/min/mg protein; Apparent degradation t1/2, In Vitro Assay Medium ([5]; 1 μM, 37 °C, 6 h incubation, parentheses 95% confidence interval): No loss detected over 6 h
CCN(CC)CCCC(C)Nc1ccnc2cc(Cl)ccc12 (stereo not shown) [Chloroquine, chloroquine]	–	–	–	–	–	270 ± 41	57 ± 0.9	180 ± 21	350	160 ± 22	–	IC50 ([4]; NF54, read-out: P. falciparum IC50 NF54): 9.1 ± 1.5 nM
O=C1Nc2cc(F)cc(F)c2C(=O)CCc2ccccc21 [Compound 28, 1,3-Difluoro-11,12-dihydro-5H-dibenzo[b,g]azonine-6,13-dione]	17	58	–	7	2.5	–	–	–	–	–	4.7	clearance ([6]; male, Swiss outbred, mouse, plasma, iv): 147 mL/min/kg; Cmax ([6]; male, Swiss outbred, mouse, plasma, po): ~500 ng/mL; adverse reactions or compound-related side effects ([6]; mice, 24 h post-dose sampling period, IV and PO): No adverse reactions or compound-related side effects were observed; in vitro selectivity index ([4]; antiplasmodial selectivity, L6 cytotoxicity vs P. falciparum): > 10,000; parasitemia [7]: 49.0 ± 4.3%
CCOC(=O)c1ccc2c(c1)C(=O)CCc1ccccc1C(=O)N2 [Compound 18, Ethyl 6,13-Dioxo-6,11,12,13-tetrahydro-5H-dibenzo-[b,g]azonine-2-carboxylate]	100	910	–	41	2.6	30 ± 7.5	32 ± 9.9	30 ± 7.2	11 ± 0.86	1000	–	IC50 ([4]; NF54, read-out: P. falciparum IC50 NF54, Mean ± SD, n ≥ 2, 72 h [3H]hypoxanthine incorporation assay): 41 ± 7.4 nM; fold more potent than 2 (antiplasmodial) ([4]; relative to compound 2): roughly 5 fold
O=C1Nc2ccccc2C(=O)CCc2cc(F)ccc21 [Compound 32, 9-Fluoro-11,12-dihydro-5H-dibenzo[b,g]azonine-6,13-dione]	11	110	< 5	130	2.1	–	–	–	–	–	25	–
